Measured values published in patent US9770026B2, “Substituted pyrimidine compound and uses thereof” (Shenyang Sinochem Agrochemicals R&D Co., Ltd., priority 2012, dated 2017).

How the values were obtained:
carmine spider mite = experiment: bioactivity test against carmine spider mite, airbrush spray; format: in vivo; settings: for control against carmine spider mite: mortality after 72 hrs
Procedure: (§1) Compounds were dissolved in mixed solvent (acetone:methanol=1:1), and diluted to required concentration with water containing 0.1% of tween 80.
(§2) Diamond back moth, armyworm, peach aphid and carmine spider mite were used as targets and the method of spraying by airbrush was used for determination of insecticidal biassays.
The method: Broadbean shoots with two true leaves in pot were taken, the healthy adults of carmine spider mite were inoculated to the leaves. The adults were counted and then sprayed with airbrush at the pressure of 0.7 kg/cm^2 and at dose of 0.5 ml. 3 replicates were set for each treatment. And then they were maintained in standard observation room. Scores were conducted and mortalities were calculated after 72 hrs.

corn rust = experiment: protectant activity in vivo against corn rust; settings: for control effect against corn rust (%): protectant activity
armyworm = experiment: bioactivity test against armyworm, airbrush spray; format: in vivo
Procedure: as §1, §2
The method of spraying by airbrush: The corn leaves were made into plates of 2 cm diameter by use of punch. A test solution (0.5 ml) was sprayed by airbrush at the pressure of 0.7 kg/cm^2 to both sides of every plate. 10 Second instar larvae were put into the petri-dishes after the leaf disc air-dried and 3 replicates were set for each treatment. Then the insects were maintained in observation room (25 °C, 60˜70% R.H.). Scores were conducted and mortalities were calculated after 72 h.

[1] = tested on: Green peach aphids (Myzus Persicae Sulzer); experiment: bioactivity test against green peach aphid, airbrush foliar spray; format: in vivo; settings: death rate after 48 hrs
Procedure: as §1, §2
Method: Filter papers were put in culture dishes (Diameter=6 cm), and water was dripped on filter papers for preserving moisture. Green peach aphids (Myzus Persicae Sulzer) were maintained on cabbage. Leaves (Diameter=3 cm) of approximately 15-30 aphids were put in the culture dishes. Bioactivity tests were used the method of Airbrush Foliar Spray, pressure=10 psi (0.7 kg/cm2), spray volume=0.5 mL. The studies were conducted at […] 25±1 C in incubator cabinets with 60±5% RH. Survey the survival aphids after 48 hrs and calculate the death rates.

wheat powdery mildew = experiment: protectant activity in vivo against wheat powdery mildew; settings: for control effect against wheat powdery mildew (%): protectant activity
Diamond back moth = experiment: insecticidal activity against diamond back moth, airbrush spray; format: in vivo; settings: 600 ppm, mortality after 72 hrs
Procedure: as §1, §2
The method of spraying by airbrush: The cabbage leaves were made into plates of 2 cm diameter by use of punch. A test solution (0.5 ml) was sprayed by airbrush at the pressure of 0.7 kg/cm^2 to both sides of every plate. 10 Second instar larvae were put into the petri-dishes after the leaf disc air-dried and 3 replicates were set for each treatment. Then the insects were maintained in observation room (25° C., 60˜70% R.H.). Scores were conducted and mortalities were calculated after 72 hrs.

cucumber downy mildew = experiment: protectant activity in vivo against cucumber downy mildew; settings: for pest or weed control at 100 ppm: read-out: protectant activity against cucumber downy mildew in vivo, 100 ppm

## CCc1ncnc(NCCc2ccc(Oc3ccc(C(F)(F)F)cn3)cc2)c1Cl [Compound I-6741]
Carmine spider mite; 10 mg/L, contrastive test
  Insecticidal activity against carmine spider mite (% ): 85%
Carmine spider mite; 100 mg/L, contrastive test
  Insecticidal activity against carmine spider mite (% ): 100%
Carmine spider mite; 600 mg/L, contrastive test
  Insecticidal activity against carmine spider mite (% ): 100%
Carmine spider mite; 100 ppm
  control against carmine spider mite: 100%
Carmine spider mite; 600 ppm
  control against carmine spider mite: 100%
Corn rust; 100 ppm
  protectant activity against corn rust in vivo: 100%
Corn rust; 400 ppm
  protectant activity against corn rust in vivo: 100%
armyworm; 100 ppm, mortality after 72 h
  control (test results against armyworm): 100%
armyworm; 600 ppm, mortality after 72 h
  control (test results against armyworm): 100%
[1]; 5 ppm
  control (test results against green peach aphid): 100%
[1]; 10 ppm
  control (test results against green peach aphid): 100%
[1]; 100 ppm
  control (test results against green peach aphid): 100%
[1]; 600 ppm
  control (test results against green peach aphid): 100%
Wheat powdery mildew; 100 ppm
  protectant activity against wheat powdery mildew in vivo: 100%
Wheat powdery mildew; 400 ppm
  protectant activity against wheat powdery mildew in vivo: 100%

## CCc1ncnc(NCCc2ccc(Oc3ccc(S(N)(=O)=O)cc3)cc2)c1Cl [II-556]
Diamond back moth
  control (test results against diamond back moth): 100%

## CCc1ncnc(NCCc2ccc(Oc3ccc(C(F)(F)F)cc3Cl)cc2)c1Cl [II-432]
Carmine spider mite; 10 mg/L, contrastive test
  Insecticidal activity against carmine spider mite (% ): 76%
Carmine spider mite; 100 mg/L, contrastive test
  Insecticidal activity against carmine spider mite (% ): 100%
Carmine spider mite; 600 mg/L, contrastive test
  Insecticidal activity against carmine spider mite (% ): 100%
Carmine spider mite; 100 ppm
  control against carmine spider mite: 100%
Carmine spider mite; 600 ppm
  control against carmine spider mite: 100%
Corn rust; 0.4 mg/L
  control effect against corn rust (%): 15%
Corn rust; 1.6 mg/L
  control effect against corn rust (%): 75%
Corn rust; 6.25 mg/L
  control effect against corn rust (%): 100%
Corn rust; 25 mg/L
  control effect against corn rust (%): 100%
Corn rust; 100 mg/L
  control effect against corn rust (%): 100%
Corn rust; 400 mg/L
  control effect against corn rust (%): 100%
Corn rust; 6.25 ppm
  protectant activity against corn rust in vivo: 100%
Corn rust; 25 ppm
  protectant activity against corn rust in vivo: 100%
Corn rust; 100 ppm
  protectant activity against corn rust in vivo: 100%
Corn rust; 400 ppm
  protectant activity against corn rust in vivo: 100%
Cucumber downy mildew; 400 ppm
  protectant activity against cucumber downy mildew in vivo: 100%
[1]; 100 ppm
  control (test results against green peach aphid): 100%
[1]; 600 ppm
  control (test results against green peach aphid): 100%
Wheat powdery mildew; 0.4 mg/L
  control effect against wheat powdery mildew (%): 50%
Wheat powdery mildew; 1.6 mg/L
  control effect against wheat powdery mildew (%): 80%
Wheat powdery mildew; 6.25 mg/L
  control effect against wheat powdery mildew (%): 100%
Wheat powdery mildew; 25 mg/L
  control effect against wheat powdery mildew (%): 100%
Wheat powdery mildew; 100 mg/L
  control effect against wheat powdery mildew (%): 100%
Wheat powdery mildew; 400 mg/L
  control effect against wheat powdery mildew (%): 100%
Wheat powdery mildew; 6.25 ppm
  protectant activity against wheat powdery mildew in vivo: 100%
Wheat powdery mildew; 25 ppm
  protectant activity against wheat powdery mildew in vivo: 100%
Wheat powdery mildew; 100 ppm
  protectant activity against wheat powdery mildew in vivo: 100%
Wheat powdery mildew; 400 ppm
  protectant activity against wheat powdery mildew in vivo: 100%

## Cc1ncnc(NCCc2ccc(Oc3ccc(Cl)cc3Cl)cc2)c1Cl [II-21]
Carmine spider mite; 100 ppm
  control against carmine spider mite: 100%
Carmine spider mite; 600 ppm
  control against carmine spider mite: 100%
Corn rust; 100 ppm
  protectant activity against corn rust in vivo: 100%
Corn rust; 400 ppm
  protectant activity against corn rust in vivo: 100%
Cucumber downy mildew; 50 ppm
  protectant activity against cucumber downy mildew in vivo: 100%
Cucumber downy mildew; 100 ppm
  protectant activity against cucumber downy mildew in vivo: 100%
Cucumber downy mildew; 400 ppm
  protectant activity against cucumber downy mildew in vivo: 100%
armyworm; 600 ppm, mortality after 72 h
  control (test results against armyworm): 100%
[1]; 600 ppm
  control (test results against green peach aphid): 100%

## FC(F)(F)c1ccc(Oc2ccc(CCNc3ncnc(C(F)(F)F)c3Cl)cc2)nc1 [Compound I-2748]
Corn rust; Zea mays, 168 h, read-out: protectant activity against corn rust in vivo, 400 ppm
  pest or weed control at 400 ppm: 80 to 99%
Cucumber downy mildew; Cucumis sativus, 168 h, read-out: protectant activity against cucumber downy mildew in vivo, 50 ppm
  pest or weed control at 50 ppm: 100%
Cucumber downy mildew; Cucumis sativus, 168 h
  pest or weed control at 100 ppm: 100%
Cucumber downy mildew; Cucumis sativus, 168 h, read-out: protectant activity against cucumber downy mildew in vivo, 400 ppm
  pest or weed control at 400 ppm: 100%
armyworm; 72 h, 600 ppm, mortality after 72 h
  pest or weed control at 600 ppm: 80 to 99%
[1]; Myzus persicae, foliar, 48 h, 600 ppm
  pest or weed control at 600 ppm: 100%
Wheat powdery mildew; Triticum aestivum, 168 h, read-out: protectant activity against wheat powdery mildew in vivo, 400 ppm
  pest or weed control at 400 ppm: 80 to 99%

## CCc1c(Cl)c(NCCc2ccc(Oc3ccc(C(F)(F)F)cc3)cc2)nc[n+]1CC(=O)c1ccccc1.[Br-] [CK5, reference compound]
Corn rust; 6.25 mg/L
  control effect against corn rust (%): 30%
Corn rust; 25 mg/L
  control effect against corn rust (%): 40%
Corn rust; 100 mg/L
  control effect against corn rust (%): 98%
Corn rust; 400 mg/L
  control effect against corn rust (%): 95%
armyworm; 10 mg/L
  Insecticidal activity against armyworm (%): 0%
armyworm; 100 mg/L
  Insecticidal activity against armyworm (%): 56%
armyworm; 600 mg/L
  Insecticidal activity against armyworm (%): 100%

## Cc1ncnc(NCCc2ccc(Oc3ccc(C(F)(F)F)cn3)cc2)c1Br [Compound I-1762]
Carmine spider mite; 100 ppm
  control against carmine spider mite: 100%
Carmine spider mite; 600 ppm
  control against carmine spider mite: 100%
Corn rust; 400 ppm
  protectant activity against corn rust in vivo: 100%
Cucumber downy mildew; 400 ppm
  protectant activity against cucumber downy mildew in vivo: 100%
[1]; 5 ppm
  control (test results against green peach aphid): 100%
[1]; 10 ppm
  control (test results against green peach aphid): 100%
[1]; 100 ppm
  control (test results against green peach aphid): 100%
[1]; 600 ppm
  control (test results against green peach aphid): 100%
Wheat powdery mildew; 400 ppm
  protectant activity against wheat powdery mildew in vivo: 100%

## CCc1ncnc(NCCc2ccc(Oc3ncc(C(F)(F)F)cc3Cl)c(Cl)c2)c1Cl [Compound I-1472]
Carmine spider mite; 600 ppm
  control against carmine spider mite: 100%
Corn rust; 400 ppm
  protectant activity against corn rust in vivo: 100%
armyworm; 600 ppm, mortality after 72 h
  control (test results against armyworm): 100%
[1]; 10 ppm
  control (test results against green peach aphid): 100%
[1]; 100 ppm
  control (test results against green peach aphid): 100%
[1]; 600 ppm
  control (test results against green peach aphid): 100%
Wheat powdery mildew; 100 ppm
  protectant activity against wheat powdery mildew in vivo: 100%
Wheat powdery mildew; 400 ppm
  protectant activity against wheat powdery mildew in vivo: 100%

## CCc1ncnc(NCc2ccc(Oc3ncc(Cl)cc3Cl)cc2)c1Cl [CK64, reference compound]
Carmine spider mite; Tetranychus cinnabarinus, 72 h, 600 mg/L, contrastive test, read-out: Insecticidal activity against carmine spider mite (% )
  pest or weed control at 600 µg/mL: 56%
armyworm; 72 h, 600 mg/L, read-out: Insecticidal activity against armyworm (%)
  pest or weed control at 600 µg/mL: 0%

## CCc1ncnc(NCCc2ccc(Oc3ccc(Cl)cc3Cl)cc2)c1Cl [II-299]
Carmine spider mite; 10 mg/L, contrastive test
  Insecticidal activity against carmine spider mite (% ): 72%
Carmine spider mite; 100 mg/L, contrastive test
  Insecticidal activity against carmine spider mite (% ): 100%
Carmine spider mite; 600 mg/L, contrastive test
  Insecticidal activity against carmine spider mite (% ): 100%
Carmine spider mite; 100 ppm
  control against carmine spider mite: 100%
Carmine spider mite; 600 ppm
  control against carmine spider mite: 100%
Corn rust; 100 ppm
  protectant activity against corn rust in vivo: 100%
Corn rust; 400 ppm
  protectant activity against corn rust in vivo: 100%
Cucumber downy mildew; 100 ppm
  protectant activity against cucumber downy mildew in vivo: 100%
Cucumber downy mildew; 400 ppm
  protectant activity against cucumber downy mildew in vivo: 100%
armyworm; 600 ppm, mortality after 72 h
  control (test results against armyworm): 100%
[1]; 100 ppm
  control (test results against green peach aphid): 100%
[1]; 600 ppm
  control (test results against green peach aphid): 100%
Wheat powdery mildew; 400 ppm
  protectant activity against wheat powdery mildew in vivo: 100%

## Cc1ncnc(NCCc2ccc(Oc3cccc(F)c3)c(Cl)c2)c1Cl [II-559]
armyworm; 600 ppm, mortality after 72 h
  control (test results against armyworm): 100%

## Cc1ncnc(NCCc2ccc(Oc3ccc(C(F)(F)F)cn3)cc2)c1Cl.Cl [Compound I-6730]
Carmine spider mite; 600 ppm
  control against carmine spider mite: 100%
Corn rust; 400 ppm
  protectant activity against corn rust in vivo: 100%
Cucumber downy mildew; 25 ppm
  protectant activity against cucumber downy mildew in vivo: 100%
Cucumber downy mildew; 50 ppm
  protectant activity against cucumber downy mildew in vivo: 100%
Cucumber downy mildew; 400 ppm
  protectant activity against cucumber downy mildew in vivo: 100%
Cucumber downy mildew; Cucumis sativus, 168 h
  pest or weed control at 100 ppm: 100%
[1]; 600 ppm
  control (test results against green peach aphid): 100%
Wheat powdery mildew; 25 ppm
  protectant activity against wheat powdery mildew in vivo: 100%
Wheat powdery mildew; 100 ppm
  protectant activity against wheat powdery mildew in vivo: 100%
Wheat powdery mildew; 400 ppm
  protectant activity against wheat powdery mildew in vivo: 100%
Wheat powdery mildew; Triticum aestivum, 168 h, read-out: protectant activity against wheat powdery mildew in vivo, 6.25 ppm
  pest or weed control at 6.25 ppm: 80 to 99%
